From paper PMC7367283, “A PIP2 substitute mediates voltage sensor-pore coupling in KCNQ activation” (Communications Biology, 2020)

Experiments:
IKs (KCNQ1 + KCNE1) = IKs (KCNQ1 + KCNE1) (Homo sapiens, UniProt P51787); assay: IKs co-expressed with CiVSP (PIP2 depletion), two-electrode voltage clamp in Xenopus oocytes; assay type: cell-based; settings: 100 µM chromanol 293B, bath application after 10 µM CP1
Source text: We co-expressed KCNQ1 with the voltage-dependent lipid phosphatase CiVSP[44] in Xenopus oocytes and recorded KCNQ1 currents using two-electrode voltage clamp with consecutive depolarizing voltage pulses. […] To more directly test CP1 effects, we applied CP1 to the intracellular side of the inside-out membrane patch that expressed IKs channels.

KCNQ2/KCNQ3 channel = system: KCNQ2/KCNQ3 channel; parameters: method as in PMID 22303005; settings: cited from earlier work

With `CCS(=O)(=O)N(C)[C@H]1c2cc(C#N)ccc2OC(C)(C)[C@@H]1O` (racemic) [Chromanol 293B, reference compound] the “effect on CP1-rescued IKs currents” value (IKs (KCNQ1 + KCNE1)) was “inhibited”.
For `O=P(O)(O)O[C@@H]1[C@H](O)[C@H](O)[C@@H](OP(=O)(O)O)[C@H](OP(=O)(O)O)[C@H]1O` [I(1,4,5)P3], the “effect on channel activity” value (KCNQ2/KCNQ3 channel) is given as “no effect on channel activity”.
In the case of `O=P(O)(O)O[C@@H]1[C@@H](O)[C@H](O)[C@H](O)[C@H](O)[C@H]1OP(=O)(O)O` [I(4,5)P2], the “effect on channel activity” value (KCNQ2/KCNQ3 channel) is listed as “no effect on channel activity”.
